SMILES strings stand for the structures. A value given as a limit tells only on which side of the number the result lay.

Test [1] has as its system K562 cells. Description: K562 cell proliferation assay (CellTiter-Glo). Conditions: Homo sapiens, K562, 72 h, CellTiter-Glo viability, read-out: Cell Line (IC50, nM) K562. Type of test: cell-based. The protocol: (§1) K562 and HL60 cells, cultured in Iscove's Modified Dulbecco's Media (IMDM) supplemented with 10% FBS, were harvested at 50-80% confluency and plated at 2,000 cells per well (K562) or 1,500 cells per well (HL60) in 384-well tissue culture plates. A subset of wells contained media only (low control, LC). Compounds were serially diluted in DMSO. 40 nL of compound or DMSO only (high control, HC) were added to each well using an Echo 550 liquid handler (Labcyte). The plates were placed in a 37° C. incubator with 5% CO2 for 72 hours. Cell viability was measured using a CellTiter-Glo luminescent cell viability assay (Promega), which allows for relative quantification of metabolically active cells by luminescence-based measurements of intracellular ATP concentrations. Briefly, plates were removed from the incubator and equilibrated for 15 minutes at room temperature prior to the addition of 40 μL of CellTiter-Glo reagent. Plates were then incubated for 30 minutes at room temperature. Luminescence was measured using an EnSpire plate reader (Perkin Elmer). As noted above, luminescence values from wells with DMSO only or media without cells were used as high and low controls (HC and LC), respectively. Normalized percent viability was calculated as follows: percent viability=100×(Lumsample−LumLC)/(LumHC−LumLC).

For test [2], the system named is HL60 cells. Description: HL60 cell proliferation assay (CellTiter-Glo). Type of test: cell-based. The note with it: Homo sapiens, HL-60, 72 h, CellTiter-Glo viability, read-out: Cell Line (IC50, nM) HL60. As for the experimental part: as §1
A general note: ATP-based viability assays read luminescence as a measure of living cells.

Test [3] deals with T1, ABL1 (Homo sapiens, UniProt P00519).
T1 construct: purchased Carna Biosciences
Description: Luminescence-based ABL kinase assay (ADP-Glo, 300 μM ATP). The format is biochemical. The protocol:
(§2) Kinase activity of ABL1 was measured using the ADP-Glo system (Promega), which measures formation of ADP using a luminescence-based method. Compounds were serially diluted in DMSO. 20 nL of compound or DMSO only (high control, HC) were added to a 384-well plate (OptiPlate-384, PerkinElmer) using an Echo550 liquid handler (Labcyte). 15 μL of kinase solution (10 mM MgCl2, 0.01% Brij-35, 2 mM DTT, 0.05% BSA, 1 mM EGTA, 50 mM HEPES pH 7.5, and 3.325 nM ABL1 [Carna Biosciences]) were added to each well of the 384-well plate containing the compounds. No enzyme control wells were included (low control, LC). The plate was incubated at room temperature for 30 minutes. 5 μL of a second solution containing 10 mM MgCl2, 0.01% Brij-35, 2 mM DTT, 0.05% BSA, 1 mM EGTA, 50 mM HEPES pH 7.5, 6 μM Peptide 2 (Perkin Elmer, Cat No 760346), and 1.2 mM ATP were added to each well to start the kinase reaction. The plate was incubated for 90 minutes at room temperature. 20 μL of ADP-Glo reagent (Promega) were then added to each well and the plate was incubated for 40 minutes at room temperature. 40 μL of kinase detection reagent (Promega) was added to each well and the plate was incubated for an additional 45 minutes at room temperature. During this step, ADP was converted to ATP, a substrate for luciferase, to produce luminescence signal. Luminescence was measured on an Envision plate reader (Perkin Elmer). Luminescence signal positively correlates with kinase activity. The percent kinase activity was calculated as follows: percent kinase activity=100×(Lumsample−LumLC)/(LumHC−LumLC). As noted above, DMSO only and no enzyme wells were used as high and low controls, respectively. IC50 values were calculated using the XLFit software.
Background: ADP-Glo turns the ADP formed in a reaction into a luminescent signal.

Test [4] deals with ABL1 (T315I) (Homo sapiens, UniProt P00519, T315I). Put plainly: Luminescence-based ABL kinase assay (ADP-Glo, 300 μM ATP), T315I mutant. The format is biochemical. As for the experimental part:
as §2

Regarding `COc1cc2cc[nH]c2cc1-c1c[nH]c2nc(NC(=O)C3CC3)ccc12` [Compound 17, N-[3-(5-methoxy-1H-indol-6-yl)-1H-pyrrolo[2,3-b]pyridin-6-yl]cyclopropanecarboxamide], the IC50 in test [1] was 229 nM; in test [2], above 10000 nM; in test [3], 55.1 nM; in test [4], 28.6 nM.

As to `COc1cc2ncoc2cc1-c1c[nH]c2nc(NC(=O)[C@@H]3C[C@@H]3F)ccc12` [Compound 87, (1S,2S)-2-fluoro-N-(3-(5-methoxybenzo[d]oxazol-6-yl)-1H-pyrrolo[2,3-b]pyridin-6-yl)cyclopropane-1-carboxamide], the IC50 in test [1] is 94.1 nM; in test [2], above 10000 nM; in test [3], 9.54 nM; in test [4], 6.59 nM.

In the case of `COc1ccccc1-c1c[nH]c2nc(NC(=O)[C@H]3C[C@@H]3CO)ccc12` (relative stereo) [Compound 108, trans-2-(hydroxymethyl)-N-(3-(2-methoxyphenyl)-1H-pyrrolo[2,3-b]pyridin-6-yl)cyclopropane-1-carboxamide], the IC50 in test [1] was 419 nM; in test [2], above 10000 nM; in test [3], 78.6 nM; in test [4] it was 17.8 nM.

With `O=C(Nc1ccc2c(-c3cccnc3OCC(F)(F)F)c[nH]c2n1)[C@@H]1C[C@@H]1F` [Compound 126, (1S,2S)-2-fluoro-N-(3-(2-(2,2,2-trifluoroethoxy)pyridin-3-yl)-1H-pyrrolo[2,3-b]pyridin-6-yl)cyclopropane-1-carboxamide], the IC50 in test [1] is 2010 nM; in test [2], above 10000 nM; in test [3], 2580 nM; in test [4], 3860 nM.

Regarding `O=C(NCCN1CCNCC1)Nc1ccc2c(-c3ccccc3OC3CC3)n[nH]c2n1` [Compound 136, 3-[3-(2-cyclopropoxyphenyl)-1H-pyrazolo[3,4-b]pyridin-6-yl]-1-[2-(piperazin-1-yl)ethyl]urea], the 50% inhibitory concentration (IC50) was 333 nM in test [1], above 10000 nM in test [2], 27.4 nM in test [3] and 54.5 nM in test [4].

As to `COc1ncccc1-c1c(F)[nH]c2nc(NC(=O)[C@@H]3C[C@@H]3F)ccc12` [Compound 68, (1S,2S)-2-fluoro-N-[2-fluoro-3-(2-methoxypyridin-3-yl)-1H-pyrrolo[2,3-b]pyridin-6-yl]cyclopropane-1-carboxamide], the IC50 was 607 nM in test [1], 3690 nM in test [2], 78.2 nM in test [3] and 19.2 nM in test [4].

In the case of `O=C(Nc1ccc2c(-c3c(F)cccc3OC3CC3)c[nH]c2n1)[C@@H]1C[C@@H]1F` [Compound 127, (1S,2S)—N-[3-(2-cyclopropoxy-6-fluorophenyl)-1H-pyrrolo[2,3-b]pyridin-6-yl]-2-fluorocyclopropane-1-carboxamide], the IC50 in test [1] is 100 nM; in test [2] it was above 10000 nM; in test [3], 22.1 nM; in test [4], 0.745 nM.

On to `COc1ccc(F)c(OC)c1-c1c[nH]c2nc(NC(=O)[C@@H]3C[C@@H]3F)ccc12` [Compound 119, (1S,2S)-2-fluoro-N-[3-(3-fluoro-2,6-dimethoxyphenyl)-1H-pyrrolo[2,3-b]pyridin-6-yl]cyclopropane-1-carboxamide], for which the IC50 in test [1] is 32.2 nM; in test [2], above 10000 nM; in test [3], 4.67 nM; in test [4], 2.57 nM.

Take `COc1nc(C)nc(OC)c1-c1c[nH]c2nc(NC(=O)[C@@H]3C[C@@H]3F)ccc12` [Compound 142, (1S,2S)—N-(3-(4,6-dimethoxy-2-methylpyrimidin-5-yl)-1H-pyrrolo[2,3-b]pyridin-6-yl)-2-fluorocyclopropane-1-carboxamide]: the IC50 in test [1] was 34.5 nM; in test [2], above 10000 nM; in test [3] it was 14.6 nM; in test [4], 14.3 nM.

Consider `COc1cccc(F)c1-c1c[nH]c2nc(NC(=O)[C@H]3C[C@H]3F)ccc12` [Compound 22, (1R,2R)-2-fluoro-N-[3-(2-fluoro-6-methoxyphenyl)-1H-pyrrolo[2,3-b]pyridin-6-yl]cyclopropane-1-carboxamide], for which the half-inhibitory concentration (IC50) in test [1] is 421 nM; in test [2], above 10000 nM; in test [3] it was 78.9 nM; in test [4], 7.17 nM.

Regarding `O=C(Nc1ccc2c(-c3ccc4[nH]cnc4c3)c[nH]c2n1)C1CC1` [Compound 19, N-[3-(1H-1,3-benzodiazol-5-yl)-1H-pyrrolo[2,3-b]pyridin-6-yl]cyclopropanecarboxamide], the IC50 was found to be 147 nM in test [1], 287 nM in test [2], 11.2 nM in test [3] and 4.57 nM in test [4].

Consider `O=C(Nc1ccc2c(-c3cccnc3OC3CC3)c[nH]c2n1)[C@@H]1C[C@@H]1F` [Compound 69, (1S,2S)—N-[3-(2-cyclopropoxypyridin-3-yl)-1H-pyrrolo[2,3-b]pyridin-6-yl]-2-fluorocyclopropane-1-carboxamide], for which the IC50 in test [1] is 162 nM; in test [2], above 10000 nM; in test [3], 27.6 nM; in test [4], 27.4 nM.

`O=C(Nc1ccc2c(-c3ccccc3OC3CC3)n[nH]c2n1)[C@@H]1C[C@@H]1F` [Compound 94, (1S,2S)—N-(3-(2-cyclopropoxyphenyl)-1H-pyrazolo[3,4-b]pyridin-6-yl)-2-fluorocyclopropane-1-carboxamide]: the 50% inhibitory concentration (IC50) in test [1] was found to be 55.6 nM; in test [2], 7580 nM; in test [3], 10.8 nM; in test [4], 6.36 nM.

On to `COc1cc2[nH]nnc2cc1-c1c[nH]c2nc(NC(=O)[C@@H]3C[C@@H]3F)ccc12` [Compound 96, (1S,2S)-2-fluoro-N-[3-(6-methoxy-1H-1,2,3-benzotriazol-5-yl)-1H-pyrrolo[2,3-b]pyridin-6-yl]cyclopropane-1-carboxamide], for which the IC50 was 862 nM in test [1], above 10000 nM in test [2], 8.87 nM in test [3] and 8.93 nM in test [4].

As to `COc1ccccc1-c1c[nH]c2nc(NC(=O)NCCN3CCOCC3)ccc12` [Compound 43, 3-[3-(2-methoxyphenyl)-1H-pyrrolo[2,3-b]pyridin-6-yl]-1-[2-(morpholin-4-yl)ethyl]urea], the IC50 in test [1] is 779 nM; in test [2], above 10000 nM; in test [3], 91.1 nM; in test [4], 15.6 nM.

In the case of `O=C(Nc1ccc2c(-c3cccnc3OC(F)F)c[nH]c2n1)C1CC1` [Compound 48, N-[3-[2-(difluoromethoxy)pyridin-3-yl]-1H-pyrrolo[2,3-b]pyridin-6-yl]cyclopropanecarboxamide], the IC50 stood at 777 nM in test [1], 9210 nM in test [2], 94.9 nM in test [3] and 244 nM in test [4].

Consider `O=C(Nc1ccc2c(-c3ccc4[nH]cnc4c3)c[nH]c2n1)[C@@H]1C[C@@H]1F` [Compound 28, (1S,2S)—N-[3-(1H-1,3-benzodiazol-5-yl)-1H-pyrrolo[2,3-b]pyridin-6-yl]-2-fluorocyclopropane-1-carboxamide], for which the IC50 was 62.1 nM in test [1], 385 nM in test [2], 7.58 nM in test [3] and 2.84 nM in test [4].

Consider `COc1nccc(C)c1-c1c[nH]c2nc(NC(=O)[C@@H]3C[C@@H]3F)ccc12` [Compound 113, (1S,2S)-2-fluoro-N-[3-(2-methoxy-4-methylpyridin-3-yl)-1H-pyrrolo[2,3-b]pyridin-6-yl]cyclopropane-1-carboxamide], for which the 50% inhibitory concentration (IC50) in test [1] was 174 nM; in test [2], above 10000 nM; in test [3], 20.9 nM; in test [4], 15.9 nM.

Broadly, the IC50 is the concentration needed to halve the response being measured.

(Values after patent US20240043420A1, “7-AZAINDOLE COMPOUNDS FOR INHIBITION OF BCR-ABL TYROSINE KINASES” (EnLiven Therapeutics, Inc., priority 2020, published 2024).)
